Results: patent US8889677B2, “Substituted triazoles useful as mGlu5 receptor modulators” (Boehringer Ingellheim International GmbH, priority 2012, dated 2014)

Molecular target: T1, human recombinant mGluR5 (Homo sapiens, UniProt P41594)
T1 construct: expressed in transfected cells; host or cells: HEK 293 cell line cultured with tetracycline, hygromycin and geneticin; tetracycline removed 3-7 days before the assay
Experiment: positive modulation of mGluR5, calcium based FLIPR assay in HEK 293 cells
Details: HEK 293 cell line expressing human recombinant mGluR5; EC50 of the modulation of the glutamate response (glutamate approx. 5% basal stimulation); peak height of Ca release fluorescence signal
In short: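 Potentiation EC50 derived by nonlinear fit of peak calcium fluorescence after a near-5%-maximal glutamate challenge, following 5 min compound exposure (intrinsic activity also recorded). Dye-loaded recombinant human mGluR5 HEK 293 cells in Ringer solution pH 7.4, 1% DMSO; plate controls were vehicle (100%) and 10 μM CDPPB (200%).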

T1 sequence (P41594 21-1212): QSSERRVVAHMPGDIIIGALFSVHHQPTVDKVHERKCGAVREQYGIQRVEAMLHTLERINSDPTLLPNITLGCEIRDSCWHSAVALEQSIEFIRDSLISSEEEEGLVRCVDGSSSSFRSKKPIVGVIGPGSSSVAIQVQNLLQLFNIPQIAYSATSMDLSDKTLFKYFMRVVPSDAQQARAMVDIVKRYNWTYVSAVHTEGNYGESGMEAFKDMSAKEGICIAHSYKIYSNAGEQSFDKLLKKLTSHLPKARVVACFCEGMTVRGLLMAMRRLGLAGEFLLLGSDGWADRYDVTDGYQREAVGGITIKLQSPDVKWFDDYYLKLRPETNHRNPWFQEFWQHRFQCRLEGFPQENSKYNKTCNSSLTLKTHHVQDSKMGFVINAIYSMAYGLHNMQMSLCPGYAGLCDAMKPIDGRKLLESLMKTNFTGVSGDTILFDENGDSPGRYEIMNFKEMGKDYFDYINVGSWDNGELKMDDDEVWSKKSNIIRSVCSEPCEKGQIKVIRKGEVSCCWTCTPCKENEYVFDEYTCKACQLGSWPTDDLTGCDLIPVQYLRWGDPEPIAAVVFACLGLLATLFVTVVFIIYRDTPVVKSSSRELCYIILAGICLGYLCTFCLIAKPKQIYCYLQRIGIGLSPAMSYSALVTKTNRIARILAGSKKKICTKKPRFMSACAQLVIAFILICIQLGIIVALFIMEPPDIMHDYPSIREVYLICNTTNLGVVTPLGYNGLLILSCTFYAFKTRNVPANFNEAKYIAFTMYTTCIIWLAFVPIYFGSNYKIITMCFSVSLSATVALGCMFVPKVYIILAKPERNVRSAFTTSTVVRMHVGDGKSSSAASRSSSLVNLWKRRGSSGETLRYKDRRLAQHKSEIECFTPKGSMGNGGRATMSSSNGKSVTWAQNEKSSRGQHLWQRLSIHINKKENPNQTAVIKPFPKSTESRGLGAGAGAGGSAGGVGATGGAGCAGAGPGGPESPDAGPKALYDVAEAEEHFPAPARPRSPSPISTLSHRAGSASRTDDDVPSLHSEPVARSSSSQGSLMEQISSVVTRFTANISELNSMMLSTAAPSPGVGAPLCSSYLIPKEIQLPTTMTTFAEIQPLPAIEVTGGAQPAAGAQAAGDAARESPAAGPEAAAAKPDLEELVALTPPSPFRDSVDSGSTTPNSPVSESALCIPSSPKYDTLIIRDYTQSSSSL

Compound	EC50
Cc1cc(-c2nc(C3CCCCC3)n(CC(=O)N3CCN(c4ncc(Cl)cn4)CC3)n2)ccc1F [Example 07.04.069.]	0.229 µM
COc1cc(N2CCN(C(=O)Cn3nc(-c4ccc(F)cc4)nc3-c3ccc(F)c(OC)c3)CC2)ncn1 [Example 07.04.079.]	1.33 µM
COc1cc(N2CCN(C(=O)Cn3nc(-c4cccc(C(C)C)c4)nc3-c3ccccc3)CC2)ncn1 [Example 07.10.34.]	0.157 µM
COCCN1CCN(c2cc(N3CCN(C(=O)Cn4nc(-c5ccc(F)cc5)nc4-c4ccc(F)cc4)CC3)ncn2)CC1 [Example 07.08.10.]	1.03 µM
COc1ccc(-c2nc(-c3ccc(OC)cc3)n(CC(=O)N3CCN(c4ncccc4C#N)CC3)n2)cc1 [Example 07.02.16.]	0.266 µM
O=C(Cn1nc(-c2ccc(F)cn2)nc1-c1ccc(F)cc1)N1CCN(c2ccccn2)CC1 [Example 07.04.139.]	0.809 µM
COc1ccc(-c2nc(-c3ccccc3)n(CC(=O)N3CCN(c4cc(OC)ccn4)CC3)n2)cc1 [Example 07.04.056.]	0.064 µM
N#Cc1cccc(N2CCN(C(=O)Cn3nc(-c4ccc(F)cc4)nc3-c3ccc(F)cc3)CC2)c1 [Example 07.03.06.]	0.35 µM
COc1ccc(-c2nc(-c3ccc(OC)cc3)n(CC(=O)N3CCN(c4ccc(C(N)=O)cn4)CC3)n2)cc1 [Example 07.02.17.]	0.644 µM
CCOc1ccnc(N2CCN(C(=O)Cn3nc(-c4ccc(F)cc4)nc3-c3ccc(F)cc3)CC2)c1 [Example 07.05.01., 2-(3,5-Bis-(4-fluoro-phenyl)-(1,2,4)triazol-1-yl)-1-(4-(4-ethoxy-pyridin-2-yl)-piperazin-1-yl)-ethanone]	0.05 µM
O=C(Cn1nc(-c2ccc(F)cc2)nc1-c1ccc(F)cc1)N1CCN(c2ccncn2)CC1 [Example 07.04.003.]	0.259 µM
Cc1cc(-c2nc(C(C)C)n(CC(=O)N3CCN(c4ncccn4)CC3)n2)ccc1F [Example 07.04.089.]	0.34 µM
COc1cc(N2CCN(C(=O)Cn3nc(-c4cccc(C)c4)nc3-c3ccccc3)CC2)ncn1 [Example 07.10.35.]	0.098 µM
COc1cc(-c2nc(-c3ccc(F)cc3)nn2CC(=O)N2CCN(c3ncccn3)CC2)ccc1F [Example 07.04.077.]	0.244 µM
COc1ccc(-c2nc(C3CCCCC3)n(CC(=O)N3CCN(c4cc(C)ccn4)CC3)n2)cc1 [Example 07.02.26.]	0.252 µM
Cc1cc(-c2nc(-c3ccccc3)n(CC(=O)N3CCN(c4ncc(Br)cn4)CC3)n2)ccc1Br [Example 07.04.057.]	0.075 µM
O=C(Cn1nc(-c2ccc(F)cc2)nc1-c1ccc(F)cc1)N1CCN(c2cc(C(F)(F)F)ccn2)CC1 [Example 07.02.07.]	0.217 µM
O=C(Cn1nc(-c2ccc(F)cc2)nc1-c1ccc(F)cc1)N1CCN(c2cc(Cl)ncn2)CC1 [Example 07.03.09.]	0.121 µM
Nc1cc(N2CCN(C(=O)Cn3nc(-c4ccc(F)cc4)nc3-c3ccc(F)cc3)CC2)ncn1 [Example 07.03.28.]	0.319 µM
CCCc1nc(-c2ccc(OC(F)F)cc2)nn1CC(=O)N1CCN(c2ncccn2)CC1 [Example 7.04.168]	0.249 µM
Cc1cc(-c2nc(-c3ccccc3)n(CC(=O)N3CCN(c4ncccn4)CC3)n2)ccc1Br [Example 07.01.06.]	0.013 µM
CN1CCN(c2cc(N3CCN(C(=O)Cn4nc(-c5ccc(F)cc5)nc4-c4ccc(F)cc4)CC3)ncn2)CC1=O [Example 07.08.14.]	0.822 µM

Compound	EC50
N#Cc1ccccc1N1CCN(C(=O)Cn2nc(-c3ccc(F)cc3)nc2-c2ccc(F)cc2)CC1 [Example 07.04.007.]	1.35 µM
O=C(Cn1nc(-c2ccc(F)cc2)nc1-c1ccc(F)cc1)N1CCN(c2cc(Br)ccn2)CC1 [Example 07.01.03.]	0.08 µM
COc1cc(-c2nc(-c3ccc(F)cc3)n(CC(=O)N3CCN(c4ccccn4)CC3)n2)ccc1F [Example 07.04.157.]	0.036 µM
O=C(Cn1nc(-c2ccc(F)cc2)nc1-c1ccc(F)cc1)N1CCN(c2cc(O[C@H]3CCOC3)ncn2)CC1 [Example 07.09.11.]	0.056 µM
COCCOCCOc1cc(N2CCN(C(=O)Cn3nc(-c4ccc(F)cc4)nc3-c3ccc(F)cc3)CC2)ncn1 [Example 07.09.06.]	0.13 µM
COc1cc(N2CCN(C(=O)Cn3nc(-c4ccc(F)c(C)c4)nc3C3CCCC3)CC2)ncn1 [Example 07.04.112.]	0.311 µM
Cc1ccnc(N2CCN(C(=O)Cn3nc(-c4ccccc4)nc3-c3ccccc3)CC2)c1 [Example 07.02.28.]	0.243 µM
CCc1nc(-c2ccc(F)c(C)c2)nn1CC(=O)N1CCN(c2cc(OC)ncn2)CC1 [Example 07.04.093.]	1.73 µM
COc1ccc(-c2nc(-c3ccc(F)cc3)nn2CC(=O)N2CCN(c3ncc(Cl)cn3)CC2)cc1 [Example 07.04.045.]	0.08 µM
COc1ccc(-c2nc(-c3ccc(F)cc3)nn2CC(=O)N2CCN(c3ncccn3)CC2)cc1 [Example 07.04.040.]	0.033 µM
O=C(Cn1nc(-c2ccc(F)cc2)nc1-c1ccc(F)cc1)N1CCN(c2ccc(Cl)nn2)CC1 [Example 07.04.009.]	0.166 µM
CN(c1cc(N2CCN(C(=O)Cn3nc(-c4ccc(F)cc4)nc3-c3ccc(F)cc3)CC2)ncn1)C1CC1 [Example 07.08.18.]	0.455 µM
COc1cc(N2CCN(C(=O)Cn3nc(-c4ccccc4)nc3-c3ccccc3)CC2)ncn1 [Example 07.04.019.]	1.09 µM
COc1ccc(-c2nc(-c3ccccc3)n(CC(=O)N3CCN(c4ccccn4)CC3)n2)cc1 [Example 07.04.054.]	0.1 µM
Cc1cc(-c2nc(-c3ccccc3)n(CC(=O)N3CCN(c4cccnn4)CC3)n2)ccc1F [Example 07.04.059.]	0.16 µM
COc1ccnc(N2CCN(C(=O)Cn3nc(-c4ccc(F)c(C)c4)nc3C3CCCCC3)CC2)c1 [Example 07.04.068.]	0.246 µM
Cc1ccc(-c2nc(-c3ccccc3)n(CC(=O)N3CCN(c4ncccn4)CC3)n2)cc1C [Example 07.10.15.]	0.024 µM
COc1cc(OC)cc(-c2nc(-c3ccccc3)n(CC(=O)N3CCN(c4ncccn4)CC3)n2)c1 [Example 07.10.09.]	0.553 µM
O=C(Cn1nc(-c2ccccc2)nc1C1=CCCC1)N1CCN(c2ncccn2)CC1 [Example 07.10.23.]	0.459 µM
COc1ccc(-c2nc(-c3ccc(OC)cc3)n(CC(=O)N3CCN(c4cccc(OC)n4)CC3)n2)cc1 [Example 07.02.15.]	0.675 µM
Cc1cccnc1N1CCN(C(=O)Cn2nc(-c3ccc(F)cc3)nc2-c2ccc(F)cc2)CC1 [Example 07.02.04.]	1.06 µM
CCc1cc(N2CCN(C(=O)Cn3nc(-c4ccc(F)cc4)nc3-c3ccc(F)cc3)CC2)nc(Cl)n1 [Example 07.03.27.]	1.21 µM

Compound	EC50
Cc1ccnc(N2CCN(C(=O)Cn3nc(-c4ccccc4)nc3-c3ccc(F)c(C)c3)CC2)c1 [Example 07.04.075.]	0.657 µM
COc1cccc(-c2nc(-c3ccc(F)cc3)n(CC(=O)N3CCN(c4cc(C)ccn4)CC3)n2)c1 [Example 07.04.027.]	0.038 µM
COc1ccc(-c2nc(-c3ccc(F)cc3)nn2CC(=O)N2CCN(c3cc(C)ccn3)CC2)cc1 [Example 07.04.041.]	0.113 µM
COc1cccc(N2CCN(C(=O)Cn3nc(-c4ccc(F)cc4)nc3-c3ccc(F)cc3)CC2)c1 [Example 07.04.014.]	0.467 µM
O=C(Cn1nc(-c2ccc(F)cc2)nc1-c1ccc(F)cc1)N1CCN(c2cc(OC3CCOCC3)ncn2)CC1 [Example 07.09.21.]	0.079 µM
Cc1ccnc(N2CCN(C(=O)Cn3nc(-c4ccc(F)c(C)c4)nc3C)CC2)c1 [Example 07.04.098.]	0.738 µM
CCC(C)c1nc(-c2ccc(F)c(C)c2)nn1CC(=O)N1CCN(c2cc(C)ccn2)CC1 (stereo not shown) [Example 07.04.099.]	0.499 µM
N#Cc1ccnc(N2CCN(C(=O)Cn3nc(-c4ccc(F)cc4)nc3-c3ccc(F)cc3)CC2)n1 [Example 07.03.08.]	0.124 µM
COc1cc(N2CCN(C(=O)Cn3nc(-c4ccc(F)c(C)c4)nc3C3CCCCC3C)CC2)ncn1 (stereo not shown) [Example 07.04.137.]	1.05 µM
COc1ccc(-c2nc(-c3ccccc3)n(CC(=O)N3CCN(c4cc(C)ccn4)CC3)n2)cc1OC [Example 07.02.20.]	0.162 µM
O=C(Cn1nc(-c2ccc(F)cc2)nc1-c1ccc(F)cc1)N1CCN(c2cc(OCCCO)ncn2)CC1 [Example 07.09.20.]	0.065 µM
CCCCCc1nc(-c2ccc(F)c(C)c2)nn1CC(=O)N1CCN(c2ncccn2)CC1 [Example 07.04.127.]	0.064 µM
COc1ccc(-c2nc(-c3ccc(F)cc3)n(CC(=O)N3CCN(c4ncc(Cl)cn4)CC3)n2)cc1 [Example 07.04.038.]	0.023 µM
Cc1cc(-c2nc(-c3ccccc3)n(CC(=O)N3CCN(c4ccccn4)CC3)n2)ccc1F [Example 07.04.061.]	0.067 µM
COc1ccnc(N2CCN(C(=O)Cn3nc(-c4ccc(F)c(C)c4)nc3C(C)C)CC2)c1 [Example 07.04.088.]	0.896 µM
COc1cc(N2CCN(C(=O)Cn3nc(-c4ccc(F)c(C)c4)nc3C3CCC(C)CC3)CC2)ncn1 (stereo not shown) [Example 07.04.132.]	0.96 µM
CN(C)c1cc(N2CCN(C(=O)Cn3nc(-c4ccc(F)cc4)nc3-c3ccc(F)cc3)CC2)ncn1 [Example 07.06.01., 2-(3,5-Bis-(4-fluoro-phenyl)-(1,2,4)triazol-1-yl)-1-(4-(6-dimethylamino-pyrimidin-4-yl)-piperazin-1-yl)-ethanone]	0.167 µM
Cc1ccnc(N2CCN(C(=O)Cn3nc(-c4ccc(F)c(C)c4)nc3C3CCC(C)CC3)CC2)c1 (stereo not shown) [Example 07.04.130.]	0.848 µM
Cc1ccnc(N2CCN(C(=O)Cn3nc(-c4ccc(F)c(C)c4)nc3C(C)C)CC2)c1 [Example 07.04.090.]	1.16 µM
COCCCN(C)c1cc(N2CCN(C(=O)Cn3nc(-c4ccc(F)cc4)nc3-c3ccc(F)cc3)CC2)ncn1 [Example 07.08.11.]	0.293 µM
